Patent US12285408B2, “Methods and compositions for the treatment of snake bite” (priority 2021, dated 2025)

Tests used:
[1] = system: SVMP activity of E. ocellatus, E. carinatus, B. asper and B. arietans venoms; experiment: In vitro kinetic fluorogenic SVMP assay (Study 2); assay type: biochemical
Text: FIG. 10. […] (A) SVMP activities of the five viper venoms quantified by fluorogenic assay. The data presented represent mean measurements and SEMs of area under the curves of fluorescent arbitrary units taken from three independent experimental runs. EOC, E. ocellatus; ECAR, E. carinatus; BAS, Bothrops asper, BAR, Bitis arietans; DRUS, Daboia russelii. (B) The effectiveness of metal chelators and peptidomimetic hydroxamate inhibitors at inhibiting the SVMP activity of the various viper venoms. Drug concentrations from 150 μM to 150 nM (highest to lowest dose tested) are presented. The data is expressed as percentage of the venom-only sample (100%, top dashed line). The negative control is presented as an interval (bottom dashed lines) and represents the values recorded in the PBS-only samples (expressed as percentage of venom activity), where the highest and the lowest values in each set of independent experiments are depicted. […] All data represent triplicate independent repeats with SEMs, where each technical repeat represents the mean of n≥2 technical replicates.
We used an in vitro kinetic fluorogenic assay^28 to assess the SVMP bioactivity of each venom and its inhibition by varying concentrations of the four SVMP-inhibitors.
The SVMP assay measuring metalloproteinase activity and the plasma assay measuring coagulation in the presence or absence of venoms and inhibitors were performed as previously described^28. The SVMP assay kinetically measured cleavage of a quenched fluorogenic substrate (ES010, R&D Biosystems) by venom in the presence or absence of inhibitors.
Briefly, 10 μl of the substrate (supplied as a 6.2 mM stock) was used per 5 ml reaction buffer (150 mM NaCl, 50 mM Tris-CI pH 7.5). Reactions consisted of 10 μl of venom±inhibitors in PBS and 90 μl of substrate. Venoms were used at 1 μg/reaction and final inhibitor concentrations ranged from 150 μM to 150 nM. Samples were preincubated for 30 min at 37° C. and pipetted in triplicate into 384-well plates (Greiner). Thereafter, data was collected on an Omega FLUOstar (BMG Labtech) instrument at an excitation wavelength of 320 nm and emission wavelength of 405 nm at 25° C. for 1 h. The areas under the curve (AUCs) in the 0-40 min interval were calculated for each sample using MARS data analysis software v3.31 (BMG Labtech); this time point was chosen as the time where all fluorescence curves had reached a plateau (maximum fluorescence). For comparing venom-only samples, the means of at least three independent experimental runs for each condition, expressed as AUCs (n≥3), were plotted at each inhibitor concentration with standard error of the mean (SEM). To determine inhibitor efficacy, the AUCs for each of the samples that consisted of venom+inhibitors were transformed and expressed as percentages of the venom-only sample (where the venom was 100%). The negative control (PBS only) was also expressed relative to the venom, and the variation in background was presented as an interval delineated by the lowest and highest values in the PBS-only samples across concentrations and inhibitors for a specific venom. […] However, only the latter two concentrations were sufficiently depleted of DMSO for viable use in the assay.

[2] = system: procoagulant activities of viper venoms (E. ocellatus, E. carinatus, B. asper, D. russelii); experiment: Plasma clotting assay, neutralization of procoagulant venom activity; assay type: biochemical; conditions: range across all venoms, 100 ng venom, bovine plasma; read-out: IC50, inhibition of procoagulant activity
Text: FIG. 11. SVMP-inhibitors neutralize the in vitro procoagulant activities of several geographically distinct viper venoms. […] The data presented represents the maximum clotting velocity, calculated as the maximum of the first derivative of each clotting curve, from triplicate independent repeat experiments with SEMs, where each technical repeat represents the mean of n≥2 technical replicates. EOC, E. ocellatus; ECAR, E. carinatus; BAS, Bothrops asper, BAR, Bitis arietans; DRUS, Daboia russelii. (B) Neutralization of procoagulant venom activity by four SVMP-inhibitors across four drug concentrations (150 μM to 150 nM). The data is expressed as the maximum clotting velocity at each dose. The negative (PBS) and positive (venom-only) controls are presented as intervals (bottom dashed and top dashed lines, respectively), with the latter representing the mean maximum clotting velocity in these samples±SEM. The data represent triplicate independent repeats with SEMs, where each technical repeat represents the mean of n≥2 technical replicates. Note the different y-axis scales.
Since SVMPs are key toxins associated with causing coagulopathy, we next investigated whether the same peptidomimetic and metal chelating inhibitors could also neutralize the procoagulant bioactivities of viper venoms. To do so, we used a validated kinetic absorbance-based assay monitoring plasma clotting^35 in the presence or absence of venoms and inhibitors (FIG. 11).
(§1) We used a previously developed plasma clotting assay^35 to measure venom-induced coagulation. Briefly, 100 ng of each venom was incubated at 37° C. for 30 min in the presence or absence of inhibitors (150 μM to 150 nM final concentrations). The final reaction consisted of 10 μl venom±inhibitors in PBS, 20 μl 20 mM CaCl2), and 20 μl citrated bovine plasma (VWR). The samples were pipetted in triplicate into 384-well plates, and absorbance monitored at 595 nm for 2 h at 25° C. on an Omega FLUOstar instrument. We calculated the maximum clotting velocity of each of the curves as per clot waveform analysis^67, by calculating the maximum of the first derivative. The means of at least three independent experimental runs for each condition were plotted at each inhibitor concentration with SEMs.

normal plasma clotting = experiment: Normal plasma clotting in the absence of venom; assay type: biochemical, bovine; conditions: 150 μM, no venom
Method: FIG. 14. The serine protease-inhibitor nafamostat inhibits normal plasma clotting. Comparison of normal clotting (i.e. in the absence of venom and inhibitors via recalcification) and clotting in the presence of the generic serine protease-inhibitor nafamostat. […] The anticoagulant effect of this drug is expressed as a percentage of the plasma-only activity.
as §1

Echis ocellatus venom = experiment: Murine preincubation (co-incubation) model of venom lethality, intravenous, with TAT ELISA; assay type: in vivo, CD-1 mice; conditions: 45 μg venom (2.5×LD50) preincubated 30 min at 37° C. with 60 μg of each drug, i.v., 6 h monitoring, n=5
Method: The intravenous median lethal dose (venom LD50) for E. ocellatus (Nigeria) of 17.85 μg per mouse was previously determined. Mice were challenged with 45 μg of E. ocellatus venom (2.5×the intravenous LD50 dose) in a refined version of the World Health Organization-recommended antivenom efficacy experiments. Groups of five male 18-22 g CD-1 mice (Charles River, UK) received experimental doses that consisted of either (a) venom only (2.5×LD50 dose), (b) venom and drug (60 μg) or (c) drug only. All experimental doses were prepared to a volume of 200 μl in PBS and incubated at 37° C. for 30 mins prior to their intravenous injection via the tail vein. Animals were monitored for 6 hours and euthanized upon observation of humane endpoints (seizure, pulmonary distress, paralysis, hemorrhage). Deaths, time of death, and survivors were recorded; where “deaths/time of death” represents the implementation of euthanasia based on the defined humane endpoints.
The same murine preincubation model was used to assess the efficacy of distinct toxin family inhibiting drugs in comparison with a drug combination. […] All experimental doses were prepared to a volume of 200 μl in PBS and incubated at 37° C. for 30 min prior to their intravenous injection via the tail vein. Animals were monitored for 6 h, and euthanized via rising concentrations of CO2 upon observation of previously defined humane end points that are predicators of lethality (e.g., seizure, pulmonary distress, paralysis, hemorrhage). Deaths, time of death, and survivors were recorded; where death/time of death represents the implementation of euthanasia based on defined humane end points.
Strong drug hits, those defined as inhibiting >80% of the venom activity in the previously described in vitro metalloproteinase assay (FIG. 1), were next progressed into murine preclinical efficacy studies, to assess their ability to prevent venom-induced lethality in vivo. We used an established in vivo model of envenoming to test the efficacy of the seven snake venom metalloproteinase toxin inhibitors identified. This model consisted of the preincubation of the test drug with venom, followed by intravenous injection of the mixture into groups of five male CD-1 mice (18-20 g) via the tail vein followed by 6 hour monitoring, and is based on principles laid out in the gold standard method of preclinical efficacy recommended by the World Health Organization.
We used an established in vivo model of envenoming^41,42 to test the efficacy of small molecule toxin inhibitors. […]

[3] = system: SVSP activity of viper venoms; experiment: Chromogenic SVSP (serine protease) assay; assay type: biochemical
Text: FIG. 13. Nafamostat inhibits the in vitro serine protease activities of several geographically distinct viper venoms. (A) The serine protease (SVSP) activity of five viper venoms expressed as the rate (ΔAbs/time/μg venom) of substrate consumption determined by kinetic chromogenic assay. The data represents triplicate independent repeats with SEMs, where each technical repeat represents the mean of n≥2 technical replicates. EOC, E. ocellatus; ECAR, E. carinatus; BAS, Bothrops asper, BAR, Bitis arietans; DRUS, Daboia russelii. (B) Neutralization of SVSP venom activity by the serine protease-inhibitor nafamostat. The data is expressed as rates (ΔAbs/time/μg venom) and represents triplicate independent repeats with SEMs, where each technical repeat represents the mean of n≥2 technical replicates. […] Note the different y-axis scales.
SVSP activity was measured using a chromogenic substrate (S-2288, Cambridge Bioscience). […] The samples were pipetted in triplicate into 384-well plates (Greiner) and absorbance at 405 nm was monitored kinetically for ˜30 min on an Omega FLUOstar instrument (BMG Labtech). Given the linearity of the resulting slopes, negative control readings (PBS) were subtracted from each reading and the rate of substrate consumption calculated by measuring the slope between 0 and 5 mins. […]

[4] = in vivo; cited from earlier work

| SMILES | lowest concentration effective / required to fully inhibit SVMP activities ([1]; concentrations tested 150 μM to 150 nM) | IC50 ([1]; range across venoms, 1 μg venom/reaction, read-out: IC50s, inhibition of SVMP activity) | IC50 [2] | effect on normal plasma clotting (normal plasma clotting) | survival / protection against venom-induced lethality (Echis ocellatus venom) | inhibition of SVSP activity ([3]; highest doses 150 and 15 μM, irrespective of venom) | IC50 ([3]; range across venoms, 1 μg venom/reaction, read-out: IC50s, inhibition of SVSP activity) | half-life [4] |
| --- | --- | --- | --- | --- | --- | --- | --- | --- |
| OCC(S)CS (centres unmarked) [dimercaprol, 2,3-dimercapto-1-propanol] | 1.5 µM | 20 to 400 nM | 150 to 3700 nM |  |  |  |  |  |
| N=C(N)c1ccc2cc(OC(=O)c3ccc(N=C(N)N)cc3)ccc2c1 [nafamostat] |  |  |  | dramatically inhibits plasma coagulation | no evident efficacy | completely inhibiting SVSP activity | 120 to 1070 nM | ~8 min |
